Test results as given in patent US20050282743A1, “Molecular interactions in cells” (Arbor Vita Corporation, priority 2001, published 2005).
pKd: −log10 of the molar value. Like-named read-outs stand apart in the source and are kept apart here. Peptide text beside a SMILES is read from it. * marks the point of attachment. Biotin = O=C1N[C@H]2[C@H](CS[C@H]2CCCCC(=O)*)N1

What was measured:
Type in all cases: binding
[1] = biological target: T1, PDZ protein (GST-PDZ fusion) (Homo sapiens, UniProt Q86UL8); assay: G' assay (10 uM PL peptide), results of TABLE 7 and TABLE 12
T1 construct: made in house; host or cells: E. coli (DH5alpha, BL21 or JM109)
T1 sequence (Q86UL8 whole entry, the tested form may be a part): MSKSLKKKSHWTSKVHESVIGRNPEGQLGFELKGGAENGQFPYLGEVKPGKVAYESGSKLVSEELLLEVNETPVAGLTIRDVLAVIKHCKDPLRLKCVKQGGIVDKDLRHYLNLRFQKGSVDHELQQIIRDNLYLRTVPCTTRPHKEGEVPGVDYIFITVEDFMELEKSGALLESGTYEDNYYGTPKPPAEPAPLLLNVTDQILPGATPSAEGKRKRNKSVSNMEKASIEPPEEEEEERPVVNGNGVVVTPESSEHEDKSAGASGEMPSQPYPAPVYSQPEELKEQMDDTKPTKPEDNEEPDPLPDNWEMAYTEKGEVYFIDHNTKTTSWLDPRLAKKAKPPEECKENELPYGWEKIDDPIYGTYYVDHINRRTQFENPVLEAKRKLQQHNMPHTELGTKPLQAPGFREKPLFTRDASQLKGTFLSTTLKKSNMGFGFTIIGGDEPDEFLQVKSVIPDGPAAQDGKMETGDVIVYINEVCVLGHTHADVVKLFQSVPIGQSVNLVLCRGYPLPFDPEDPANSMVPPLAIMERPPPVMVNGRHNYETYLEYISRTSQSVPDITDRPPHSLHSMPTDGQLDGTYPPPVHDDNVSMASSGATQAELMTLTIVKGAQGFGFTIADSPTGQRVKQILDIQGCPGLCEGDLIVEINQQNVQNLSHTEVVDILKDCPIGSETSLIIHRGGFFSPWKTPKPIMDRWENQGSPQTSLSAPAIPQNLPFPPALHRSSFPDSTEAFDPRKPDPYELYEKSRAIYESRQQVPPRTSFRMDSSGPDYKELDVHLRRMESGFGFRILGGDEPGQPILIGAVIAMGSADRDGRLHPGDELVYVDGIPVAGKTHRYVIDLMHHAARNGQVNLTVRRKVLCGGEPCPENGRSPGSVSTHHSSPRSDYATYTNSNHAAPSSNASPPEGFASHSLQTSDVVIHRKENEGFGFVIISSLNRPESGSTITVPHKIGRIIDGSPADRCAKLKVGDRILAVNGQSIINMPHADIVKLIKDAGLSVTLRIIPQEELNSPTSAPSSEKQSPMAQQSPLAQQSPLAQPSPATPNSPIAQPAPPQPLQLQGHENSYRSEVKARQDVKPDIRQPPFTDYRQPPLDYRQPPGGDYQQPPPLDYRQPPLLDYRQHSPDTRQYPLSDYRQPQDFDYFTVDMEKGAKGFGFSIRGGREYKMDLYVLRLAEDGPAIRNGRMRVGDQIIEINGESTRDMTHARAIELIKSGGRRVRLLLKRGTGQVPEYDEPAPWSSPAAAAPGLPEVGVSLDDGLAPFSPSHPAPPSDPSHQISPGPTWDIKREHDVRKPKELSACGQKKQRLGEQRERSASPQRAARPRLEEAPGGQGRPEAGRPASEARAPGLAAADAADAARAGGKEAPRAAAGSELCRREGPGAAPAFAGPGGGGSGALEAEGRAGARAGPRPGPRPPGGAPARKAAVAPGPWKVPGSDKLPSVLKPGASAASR
Summary of the method: (§1)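 Binding classes derive from A450 nm of bound biotin-tagged PL peptide. A score of 5 needs A450 above 4 in more than two repeats.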

[2] = biological target: T2, PDZ protein (GST-PDZ fusion) (Homo sapiens, UniProt Q92796); assay: as above; conditions: PDZ NeDLG
T2 construct: made in house; host or cells: E. coli (DH5alpha, BL21 or JM109)
T2 sequence (Q92796 1-817): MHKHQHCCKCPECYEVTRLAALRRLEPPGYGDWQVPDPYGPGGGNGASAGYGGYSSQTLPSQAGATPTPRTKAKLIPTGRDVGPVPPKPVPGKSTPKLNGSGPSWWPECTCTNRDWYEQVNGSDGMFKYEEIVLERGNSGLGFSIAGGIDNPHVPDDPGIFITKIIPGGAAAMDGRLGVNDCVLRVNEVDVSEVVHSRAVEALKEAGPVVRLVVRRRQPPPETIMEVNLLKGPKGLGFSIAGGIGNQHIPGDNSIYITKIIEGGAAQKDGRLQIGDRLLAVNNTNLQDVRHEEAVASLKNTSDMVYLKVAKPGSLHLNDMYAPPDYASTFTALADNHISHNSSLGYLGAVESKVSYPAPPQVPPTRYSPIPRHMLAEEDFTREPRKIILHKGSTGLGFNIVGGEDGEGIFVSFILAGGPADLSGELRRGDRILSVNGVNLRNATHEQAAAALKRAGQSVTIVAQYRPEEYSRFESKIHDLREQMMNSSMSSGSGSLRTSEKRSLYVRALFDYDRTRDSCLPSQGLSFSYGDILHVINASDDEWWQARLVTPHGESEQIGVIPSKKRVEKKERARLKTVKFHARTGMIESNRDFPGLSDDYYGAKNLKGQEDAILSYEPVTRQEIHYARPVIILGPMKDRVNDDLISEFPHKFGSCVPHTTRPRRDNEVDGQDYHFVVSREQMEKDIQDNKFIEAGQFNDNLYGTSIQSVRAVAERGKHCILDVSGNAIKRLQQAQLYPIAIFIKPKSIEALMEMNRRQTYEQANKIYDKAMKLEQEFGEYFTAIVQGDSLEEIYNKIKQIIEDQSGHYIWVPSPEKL
Summary of the method: as §1

[3] = biological target: PDZ-domain polypeptide (GST/PDZ fusion protein); assay: Apparent affinity (Kd) by titration of PL peptide in the G assay; conditions: read-out: Peptide Optimal Conc (Kd by titration of the PL peptide)
Summary of the method: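 A fixed concentration of GST/PDZ fusion protein, 5 ug/ml by default, was mixed in solution with increasing labeled PL peptide (e.g. 0.1 uM-1 mM). Reaction times ranged from 10 minutes to 2 days at 4-37° C. Complexes were separated from free peptide and detected via the label as in the G assay, apparent affinity coming from the saturating concentration.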

[4] = PDZ Atrophin-1 Inter. Prot., PDZ Domain 5
[5] = PDZ atrophin-1 interacting Protein (Atrophin-1 Inter. Prot.), PDZ Domain 1

Compound	Classification ([1]; PDZ atrophin-1 interacting Protein, PDZ Domain 1, Protein Optimal Conc 0.5)	Classification ([1]; PDZ atrophin-1 interacting Protein, PDZ Domain 3, Protein Optimal Conc 5)	Classification ([2]; PDZ Domain 1, 2, PL peptide 10 uM)	Classification ([2]; PDZ Domain 1, PL peptide 10 uM)	Classification ([2]; PDZ Domain 2, Protein Optimal Conc 5)	pKd ([3]; PDZ BAI-1, PDZ Domain 2, Protein Optimal Conc 0.3)	pKd ([3]; PDZ BAI-1, PDZ Domain 3, Protein Optimal Conc 0.5)	pKd ([3]; PDZ BAI-1, PDZ Domain 4, Protein Optimal Conc 0.3)	pKd ([3]; PDZ HEMBA 1003117, PDZ Domain 1, Protein Optimal Conc 5)	Classification [1, 4]	Classification [1, 5]	Classification ([2]; PDZ Domain 1)	Classification ([2]; PDZ Domain 1, 2)	Classification ([2]; PDZ Domain 2)	pKd ([3]; PDZ BAI-1, PDZ Domain 2)	Classification ([1]; PDZ atrophin-1 interacting Protein, PDZ Domain 2)	Classification ([1]; PDZ atrophin-1 interacting Protein, PDZ Domain 3)	Classification ([2]; PDZ Domain 3)	pKd ([3]; PDZ FLJ 00011, PDZ Domain 1)
CC[C@H](C)[C@H](NC(=O)[C@H](CCCCN)NC(=O)[C@@H](NC(=O)[C@H](CO)NC(=O)[C@@H]1CCCN1C(=O)[C@H](Cc1ccccc1)NC(=O)[C@@H](NC(=O)[C@@H](NC(=O)[C@H](CCCNC(=N)N)NC(=O)[C@H](CCC(=O)O)NC(=O)[C@H](CC(C)C)NC(=O)[C@H](CC(C)C)NC(=O)[C@H](CC(C)C)NC(=O)[C@@H](NC(=O)CNC(=O)[C@@H](NC(=O)CCCC[C@@H]1SC[C@@H]2NC(=O)N[C@@H]21)C(C)C)[C@@H](C)O)C(C)C)[C@@H](C)CC)C(C)C)C(=O)N[C@@H](C)C(=O)N[C@H](C(=O)N[C@@H](CC(C)C)C(=O)N[C@H](C(=O)O)C(C)C)[C@@H](C)O [Adenovirus E4 Type9]	5 (A450 nm of 4 more than 2× repeated)	4 (A450 nm 3-4)	5 (A450 nm of 4 more than 2× repeated)	1 (A450 nm 0-1)	5 (A450 nm of 4 more than 2× repeated)	7.70	7.12	7.00	6.52										
CC(C)C[C@H](NC(=O)[C@H](C)NC(=O)[C@H](CO)NC(=O)CNC(=O)[C@@H](NC(=O)CCCC[C@@H]1SC[C@@H]2NC(=O)N[C@@H]21)[C@@H](C)O)C(=O)N[C@@H](CCC(N)=O)C(=O)N[C@@H](C)C(=O)N[C@@H](Cc1c[nH]c2ccccc12)C(=O)N[C@@H](CCCNC(=N)N)C(=O)N[C@@H](Cc1c[nH]cn1)C(=O)N[C@H](C(=O)N[C@@H](CO)C(=O)N[C@@H](CCCNC(=N)N)C(=O)N[C@@H](CCC(N)=O)C(=O)N[C@@H](C)C(=O)N[C@H](C(=O)N[C@@H](CCC(=O)O)C(=O)N[C@@H](CO)C(=O)N[C@H](C(=O)N[C@H](C(=O)O)C(C)C)[C@@H](C)O)[C@@H](C)O)[C@@H](C)O [HPV E6 #66 (modified)] (Biotin-TGSALQAWRHTSRQATESTV-OH; C-terminus assumed)										1 (A450 nm 0-1)	5 (A450 nm of 4 more than 2× repeated)	1 (A450 nm 0-1)	5 (A450 nm of 4 more than 2× repeated)	4 (A450 nm 3-4)	5.52				
CSCC[C@H](NC(=O)[C@H](C)NC(=O)[C@H](CCCNC(=N)N)NC(=O)CNC(=O)[C@@H](NC(=O)[C@H](Cc1c[nH]c2ccccc12)NC(=O)[C@H](CCCNC(=N)N)NC(=O)CNC(=O)CCCC[C@@H]1SC[C@@H]2NC(=O)N[C@@H]21)[C@@H](C)O)C(=O)N[C@@H](CO)C(=O)N[C@@H](C)C(=O)N[C@@H](Cc1c[nH]c2ccccc12)C(=O)N[C@@H](CCCCN)C(=O)N1CCC[C@H]1C(=O)N[C@H](C(=O)N[C@@H](CCCNC(=N)N)C(=O)N[C@@H](CCCNC(=N)N)C(=O)N[C@@H](CCC(=O)O)C(=O)N[C@H](C(=O)N[C@@H](CCC(=O)O)C(=O)N[C@H](C(=O)O)C(C)C)[C@@H](C)O)[C@@H](C)O [HPV E6 #35 (modified)] (Biotin-GRWTGRAMSAWKPTRRETEV-OH; C-terminus assumed)										4 (A450 nm 3-4)	5 (A450 nm of 4 more than 2× repeated)	5 (A450 nm of 4 more than 2× repeated)	5 (A450 nm of 4 more than 2× repeated)	5 (A450 nm of 4 more than 2× repeated)		1 (A450 nm 0-1)	4 (A450 nm 3-4)	5 (A450 nm of 4 more than 2× repeated)	6.46
